Laboratory results taken from patent US20240307374A1, “FORMULATION OF FURIN INHIBITOR FOR INHALATION” (BP ASSET V, INC., priority 2021, published 2024).
≈ marks a conversion by molar mass, not a printed value. Marks after values point to notes of the source that are not given here.

Legend:
Type in all cases: physicochemical
[1] = Equilibrium solubility in pH buffers (3.0-8.0), 20% captisol and water
Procedure: Additional solids were added into the sample to generate suspension if clear solution obtained. The suspension was equilibrated via stirring (1000 rpm). The suspension was centrifuged to obtain precipitate and supernatants.
Solubility and pH were tested for the supernatants after filtration, and isolated precipitate was tested by XRPD.
• 1. pH=3.0 buffer (50 mM HCl+KCl): Weigh 365.39 mg KCl into a 100 mL volumetric flask (VF), and add 0.1 mL 1M HCl into the VF, and dilute to volume with water. • 2. pH=4.0 buffer (50 mM citrate): Weigh 56.74 mg citric acid and 60.18 mg trisodium citrate into a 10 mL volumetric flask, and dilute to volume with water. • 3. pH=5.0 buffer (50 mM citrate) Weigh 11.12 mg citric acid and 95.38 mg trisodium citrate into a 10 mL volumetric flask, and dilute to volume with water. • 4. pH=6.0 buffer (50 mM citrate) Weigh 11.04 mg citric acid and 130.2 mg trisodium citrate into a 10 mL volumetric flask, and dilute to volume with water. • 5. pH=6.0 buffer (50 mM phosphate) Weigh 8.7 mg Na2HPO4 and 52.6 mg NaH2PO4 into a 10 mL volumetric flask, and dilute to volume with water. • 6. pH=7.0 buffer (50 mM phosphate) Weigh 23.47 mg Na2HPO4 and 43.34 mg NaH2PO4into a 10 mL volumetric flask, and dilute to volume with water. • 7. pH=8.0 buffer (50 mM phosphate) Weigh 31.64 mg Na2HPO4 and 67.18 mg NaH2PO4into a 10 mL volumetric flask, and dilute to volume with water.

[2] = Solubility of freeform Type D with sugars
Procedure: The samples were sonicated for about 2 minutes, and the samples were almost clear (little solid was observed) and filtered for clear solution, pH of the solutions were 3.5. About 68.5 mg lactose and sucrose were added into the two solutions, respectively. The two samples were clear after adding sugar, and pH of the two samples remained 3.5. pH of the two solutions was adjusted to 5.1 by adding 1 M NaOH, and no solid precipitated out after pH adjustment.
The three solutions were stored under 5° C. for three days, and no solid precipitated out after cooling. The concentration and pH were tested for each sample.

[3] = Equilibrium solubility of freeform Type D in pH=4.0 and 5.0 citrate/phosphate buffers; settings: for Form: XRPD of precipitate; for Form / solubility at 24 h / End pH (24 hours): citrate/phosphate buffer; for Form / solubility at 24 h / solid form after equilibrium (XRPD): 24 hours; for solubility at 24 h: aqueous buffer, thermodynamic from solid; for solid form after equilibrium (XRPD): RT
Procedure: The suspension was equilibrated via stirring (1000 rpm) for 24 hours. The suspension was centrifuged to obtain precipitate and supernatants. Solubility and pH were tested for the supernatants after filtration, and isolated precipitate was tested by XRPD.

[4] = Solubility profile of freeform Type D in citrate buffers; settings: for solubility at 24 h: thermodynamic from solid, read-out: Solubility
Procedure: Additional solids were added into the sample to generate suspension if clear solution was obtained. The suspension was equilibrated via stirring (1000 rpm) for 24 hours. The suspension was centrifuged to obtain precipitate and supernatants. Solubility and pH were tested for the supernatants after filtration, and the isolated precipitate was tested by XRPD.

[5] = Formulation development with NaCl; settings: ~35 mg freeform Type D + ~9.6 mg citric acid + ~6.1 mg NaCl in water
Procedure: The concentration of freeform in the suspension was 0.60 mg/mL (pH 3.8). […] The experiment was redone, and a clear solution (a little cloudy) was obtained immediately after adding 1 mL water into ˜32 mg/mL API+9.6 mg/mL critic acid, solid precipitated out after addition of NaCl.

[6] = Solution stability in citrate buffers; settings: 28 days
Procedure: The stability samples were stored under 5° C. and 25° C. for 28 days, respectively. After 28 days storage, the stability samples were taken out for HPLC test and pH test.
Waters H-class UPLC (ultra-performance liquid chromatography) was used for purity, solubility, assay and stability test. Detailed method is shown in Table 9-22, Table 9-23 and Table 9-24.

[7] = 20% Captisol (pH = 5.0, w/v), 24 hrs
[8] = pH = 3.0 buffer (50 mM HCl + KCl), 24 hrs
[9] = pH = 5.0 buffer (50 mM citrate), 24 hrs
[10] = pH = 6.0 buffer (50 mM citrate), 24 hrs
[11] = pH = 7.0 buffer (50 mM phosphate), 24 hrs
[12] = pH = 8.0 buffer (50 mM phosphate), 24 hrs
[13] = 30 mmol freeform Type D + 30 mmol citric acid, initial pH 3.6
[14] = 50 mmol freeform Type D + 50 mmol citric acid + ~200 mmol lactose, initial pH 5.1
[15] = 50 mmol freeform Type D + 50 mmol citric acid + ~200 mmol sucrose, initial pH 5.1
[16] = ~1 mg/mL in 10 mM citrate buffer (pH 4.3), 5° C.
[17] = ~1 mg/mL in 10 mM citrate buffer (pH 4.3), 25° C.
[18] = ~40 mg/mL in 100 mM citrate buffer (pH 4.1), 5° C.
[19] = ~40 mg/mL in 100 mM citrate buffer (pH 4.1), 25° C.

For `CC(=O)NCC1CCN(Cc2cc(Oc3ccc(N4CCN(CCC(=O)O)CC4)nc3)nc(-c3cc(Cl)cc(Cl)c3)c2)CC1` [Freeform Type A], the solubility at 24 h ([1]; 50 mM phosphate buffer, 21 °C, pH 8, aqueous buffer, thermodynamic from solid, pH = 8.0 buffer (50 mM phosphate), RT, 24 hrs, read-out: S: solubility) was 20 µg/mL (≈ 0.0312 mM), the “FC: form change (XRPD of precipitate)” value [1, 7] was “N (N: solid form not changed)” and the “pH of supernatant (final pH)” value [1, 7] was 7.7. For the same compound, the “S: solubility” value ([1]; 20% Captisol (pH = 5.0, w/v), RT, 24 hrs) was 12.1 mg/mL, the “FC: form change (XRPD of precipitate)” value ([1]; H2O, 24 hrs) was “N (N: solid form not changed)” and the “pH of supernatant (final pH)” value ([1]; H2O, 24 hrs) was 6.8. The “form change after equilibrium in all media” value ([1]; all media, 24 hours) was “No form change”, the “FC: form change (XRPD of precipitate)” value [1, 8] was “N (N: solid form not changed)” and the “pH of supernatant (final pH)” value [1, 8] was 6.3. For the same compound, the “S: solubility” value ([1]; pH = 3.0 buffer (50 mM HCl + KCl), RT, 24 hrs) was 0.05 mg/mL, the “pH of supernatant (final pH)” value ([1]; pH = 4.0 buffer (50 mM citrate), 24 hrs) was 4.8 and the “S: solubility” value ([1]; pH = 4.0 buffer (50 mM citrate), RT, 24 hrs) was >17.9^# mg/mL. The “FC: form change (XRPD of precipitate)” value [1, 9] was “N (N: solid form not changed)”, the “pH of supernatant (final pH)” value [1, 9] was 5.2 and the “S: solubility” value ([1]; pH = 5.0 buffer (50 mM citrate), RT, 24 hrs) was 3.31 mg/mL. The “FC: form change (XRPD of precipitate)” value [1, 10] was “N (N: solid form not changed)”, the “pH of supernatant (final pH)” value [1, 10] was 6.1 and the “S: solubility” value ([1]; pH = 6.0 buffer (50 mM citrate), RT, 24 hrs) was 0.18 mg/mL. For the same compound, the “FC: form change (XRPD of precipitate)” value [1, 11] was “N (N: solid form not changed)”, the “pH of supernatant (final pH)” value [1, 11] was 7.1 and the “FC: form change (XRPD of precipitate)” value [1, 12] was “N (N: solid form not changed)”. For the same compound, the “pH of supernatant (final pH)” value [1, 12] was 8.0.

For `CC(=O)NCC1CCN(Cc2cc(Oc3ccc(N4CCN(CCC(=O)O)CC4)nc3)nc(-c3cc(Cl)cc(Cl)c3)c2)CC1` [Freeform Type D], the Concentration [2, 13] was 18110 µg/mL, the “End pH (24 hours)” value [2, 13] was 3.6 and the Purity [2, 13] was 99.8 Area %. The Concentration [2, 14] was 26450 µg/mL, the “End pH (24 hours)” value [2, 14] was 5.1 and the Purity [2, 14] was 99.8 Area %. The Concentration [2, 15] was 26500 µg/mL, the “End pH (24 hours)” value [2, 15] was 5.3 and the Purity [2, 15] was 99.8 Area %. For the same compound, the Form ([3]; initial pH 4.0, RT) was “Low crystallinity*”, the Form ([3]; initial pH 5.0, RT) was “Freeform Type D” and the solubility at 24 h ([3]; initial pH 4.0, RT) was 30600 µg/mL (≈ 47.7 mM). For the same compound, the solubility at 24 h ([3]; initial pH 5.0, RT) was 1290 µg/mL (≈ 2.01 mM), the “End pH (24 hours)” value ([3]; initial pH 4.0, RT) was 5.2 and the “End pH (24 hours)” value ([3]; initial pH 5.0, RT) was 5.2. For the same compound, the “solid form after equilibrium (XRPD)” value ([3]; pH=4.0 citrate/phosphate) was “Low crystallinity sample”, the “solid form after equilibrium (XRPD)” value ([3]; pH=5.0 citrate/phosphate) was “no form change” and the solubility at 24 h ([4]; 50 mM citrate buffer, pH 4.89, aqueous buffer) was 13200 µg/mL (≈ 20.6 mM). The “form change after equilibrium in all citrate buffers (XRPD)” value ([4]; 10/20/50/100 mM citrate buffers, 24 hours) was “No form change”, the solubility at 24 h ([4]; aqueous buffer, 10 mM citrate buffer, buffer pH 2.88, RT, 24 hours, end pH 4.47) was 8600 µg/mL (≈ 13.4 mM) and the solubility at 24 h ([4]; aqueous buffer, 10 mM citrate buffer, buffer pH 3.34, RT, 24 hours, end pH 4.57) was 4000 µg/mL (≈ 6.23 mM). For the same compound, the solubility at 24 h ([4]; aqueous buffer, 10 mM citrate buffer, buffer pH 3.89, RT, 24 hours, end pH 4.76) was 3400 µg/mL (≈ 5.3 mM), the solubility at 24 h ([4]; aqueous buffer, 10 mM citrate buffer, buffer pH 4.30, RT, 24 hours, end pH 4.82) was 2100 µg/mL (≈ 3.27 mM) and the solubility at 24 h ([4]; aqueous buffer, 10 mM citrate buffer, buffer pH 4.90, RT, 24 hours, end pH 5.21) was 700 µg/mL (≈ 1.09 mM). It also gave a solubility at 24 h ([4]; aqueous buffer, 20 mM citrate buffer, buffer pH 3.02, RT, 24 hours, end pH 4.59) of 14000 µg/mL (≈ 21.8 mM), a solubility at 24 h ([4]; aqueous buffer, 20 mM citrate buffer, buffer pH 3.55, RT, 24 hours, end pH 4.69) of 9800 µg/mL (≈ 15.3 mM) and a solubility at 24 h ([4]; aqueous buffer, 20 mM citrate buffer, buffer pH 4.01, RT, 24 hours, end pH 4.67) of 5500 µg/mL (≈ 8.57 mM). For the same compound, the solubility at 24 h ([4]; aqueous buffer, 20 mM citrate buffer, buffer pH 4.60, RT, 24 hours, end pH 4.91) was 2300 µg/mL (≈ 3.58 mM), the solubility at 24 h ([4]; aqueous buffer, 20 mM citrate buffer, buffer pH 4.98, RT, 24 hours, end pH 5.28) was 800 µg/mL (≈ 1.25 mM) and the solubility at 24 h ([4]; aqueous buffer, 50 mM citrate buffer, buffer pH 3.76, RT, 24 hours, end pH 4.82) was 23800 µg/mL (≈ 37.1 mM). The solubility at 24 h ([4]; aqueous buffer, 50 mM citrate buffer, buffer pH 4.70, RT, 24 hours, end pH 4.93) was 4700 µg/mL (≈ 7.33 mM), the solubility at 24 h ([4]; aqueous buffer, 50 mM citrate buffer, buffer pH 5.27, RT, 24 hours, end pH 5.33) was 800 µg/mL (≈ 1.25 mM) and the solubility at 24 h ([4]; aqueous buffer, 100 mM citrate buffer, buffer pH 3.60, RT, 24 hours, end pH 4.92) was 24300 µg/mL (≈ 37.9 mM). For the same compound, the solubility at 24 h ([4]; aqueous buffer, 100 mM citrate buffer, buffer pH 4.07, RT, 24 hours, end pH 4.88) was 56800 µg/mL (≈ 88.5 mM), the solubility at 24 h ([4]; aqueous buffer, 100 mM citrate buffer, buffer pH 4.51, RT, 24 hours, end pH 5.03) was 21200 µg/mL (≈ 33 mM) and the solubility at 24 h ([4]; aqueous buffer, 100 mM citrate buffer, buffer pH 5.03, RT, 24 hours, end pH 5.16) was 4400 µg/mL (≈ 6.86 mM). For the same compound, the solubility at 24 h ([4]; pH 4.7, aqueous buffer, 50 mM citrate buffer, buffer pH 3.23, RT, 24 hours, end pH 4.70) was 33200 µg/mL (≈ 51.7 mM), the solubility at 24 h ([4]; pH 5.5, aqueous buffer, 100 mM citrate buffer, buffer pH 5.42, RT, 24 hours, end pH 5.50) was 600 µg/mL (≈ 0.935 mM) and the pH ([5]; 24 hours) was 3.8. For the same compound, the “concentration of freeform in the suspension” value ([5]; 24 hours stirring) was 600 µg/mL, the degradation ([6]; 40 mg/mL in 100 mM citrate buffer, 5° C. and 25° C.) was “No significant degradation” and the Appearance [6, 16] was “yellow solution”. The Assay [6, 16] was 68.4%, the Purity [6, 16] was 89.0 Area % and the pH [6, 16] was 4.7. The Appearance [6, 17] was “cloudy and yellow”, the Assay [6, 17] was 11.6% and the Purity [6, 17] was 78.9 Area %. The pH [6, 17] was 4.6, the Appearance [6, 18] was “became cloudy” and the Assay [6, 18] was 95.0%. For the same compound, the Purity [6, 18] was 99.7 Area %, the pH [6, 18] was 4.8 and the Appearance [6, 19] was “remained a clear solution”. The Assay [6, 19] was 98.9%, the Purity [6, 19] was 99.5 Area % and the pH [6, 19] was 4.9.
